Values quoted from earlier work in US8377956B2, “Use of (3R)-4-{[(1S)-2-methyl-1-(2-methylpropanoyloxy)propoxy]carbonylamino}-3-(4-chlorophenyl) butanoic acid for treating urinary incontinence” (XenoPort, Inc., priority 2010, dated 2013).

System: patients with unstable bladder syndrome
Conditions: 5 mg four times per day

In the case of NCC(CC(=O)O)c1ccc(Cl)cc1 (racemic) [baclofen, (±)-4-Amino-3-(4-chlorophenyl)butanoic acid], the “diurnal and nocturnal frequency of micturition” value is given as “significantly improve” and the severity of incontinence is given as “significantly improve”.
